Laboratory results as given in patent publication US20050208496A1, “Methods of testing for bronchial asthma or chronic obstructive pulmonary disease” (Genox Research, Inc., priority 2002, published 2005).

Tested on: respiratory epithelial cells

IL-13: human IL-13 (Peprotech, Inc.) added to the medium at 50 ng/mL to stimulate respiratory epithelial cells
IFIT4 (38584_at) expression, fold change upon IL-13 stimulation (lot 2, Day 3, AI method): 10.3 fold
IFITM1 (675_at) expression, fold change upon IL-13 stimulation (lot 2, Day 3, AI method): 3.6 fold
IL13RA2 (1016_s_at) expression fold change upon IL-13 stimulation (lot 2, Day 3, AI method): 15.9 fold
IL19 (47855_at) expression fold change (lot 2, Day 3, AI method): 10.9 fold
ILIRL1 (40322_at) expression, fold change upon IL-13 stimulation (lot 2, Day 3, AI method): 9.8 fold
IRF7 (36412_s_at) expression fold change (lot 2, Day 3, AI method): 3.4 fold
ISG15 (1107_s_at) expression, fold change upon IL-13 stimulation (lot 2, Day 3, AI method): 8.8 fold
ISG15 (38432_at) expression, fold change upon IL-13 stimulation (lot 2, Day 3, AI method): 12.6 fold
ISG20 (33304_at) expression, fold change upon IL-13 stimulation (lot 2, Day 3, AI method): 3.3 fold
KIAA0537 (33787_at) expression, fold change upon IL-13 stimulation (lot 2, Day 3, AI method): 4.8 fold
KIAA1199 (36070_at) expression, fold change upon IL-13 stimulation (lot 2, Day 3, AI method): 2.7 fold
KIAA1268 (57050_at) expression fold change (lot 2, Day 3, AI method): 2.2 fold
KIAAI268 (59516_at) expression fold change (lot 2, Day 3, AI method): 2.2 fold
KRT16 (601_s_at) expression fold change (lot 2, Day 3, AI method): 5.2 fold
LAMP3 (37168_at) expression, fold change upon IL-13 stimulation (lot 2, Day 3, AI method): 5.4 fold
LOC57118 (51085_at) expression fold change (lot 2, Day 3, AI method): 2.7 fold
LOC64116 (40456_at) expression, fold change upon IL-13 stimulation (lot 2, Day 3, AI method): 5.6 fold
MDA5 (51920_at) expression fold change (lot 2, Day 3, AI method): 3.3 fold
MFHAS1 (50388_at) expression fold change (lot 2, Day 3, AI method): 2.4 fold
MICB (35937_at) expression, fold change upon IL-13 stimulation (lot 2, Day 3, AI method): 2.7 fold
MKP-L (38272_at) expression, fold change upon IL-13 stimulation (lot 2, Day 3, AI method): 2.5 fold
MMP7 (668_s_at) expression, fold change upon IL-13 stimulation (lot 2, Day 3, AI method): 3.4 fold
MP1 (34839_at) expression, fold change upon IL-13 stimulation (lot 2, Day 3, AI method): 2 fold
MX2 (879_at) expression fold change (lot 2, Day 3, AI method): 6.9 fold
MXI (37014_at) expression fold change (lot 2, Day 3, AI method): 11.4 fold
NCF2 (41038_at) expression fold change (lot 2, Day 3, AI method): 4.4 fold
NK4 (39119_s_at) expression fold change upon IL-13 stimulation (lot 2, Day 3, AI method): 4.1 fold
NOS2A (1948_f_at) expression fold change upon IL-13 stimulation (lot 2, Day 3, AI method): 14.5 fold
NOS2A (48918_at) expression fold change (lot 2, Day 3, AI method): 25.4 fold
OAF (39695_at) expression, fold change upon IL-13 stimulation (lot 2, Day 3, AI method): 2.7 fold
OAS1 (38388_at) expression fold change upon IL-13 stimulation (lot 2, Day 3, AI method): 6.5 fold
OAS1 (38389_at) expression fold change upon IL-13 stimulation (lot 2, Day 3, AI method): 4.7 fold
OAS2 (39263_at) expression fold change upon IL-13 stimulation (lot 2, Day 3, AI method): 3.5 fold
OSF-2 (1451_s_at) expression fold change upon IL-13 stimulation (lot 2, Day 3, AI method): 86.8 fold
PKD2 (38120_at) expression, fold change upon IL-13 stimulation (lot 2, Day 3, AI method): 2.4 fold
PLOD2 (34795_at) expression fold change upon IL-13 stimulation (lot 2, Day 3, AI method): 2 fold
PLS1 (39951_at) expression fold change (lot 2, Day 3, AI method): 3.1 fold
PLSCR1 (32775_r_at) expression fold change upon IL-13 stimulation (lot 2, Day 3, AI method): 3 fold
PMCH (32005_at) expression fold change (lot 2, Day 3, AI method): 12.2 fold
PSMB9 (38287_at) expression fold change upon IL-13 stimulation (lot 2, Day 3, AI method): 2.7 fold
PVRL2 (50320_g_at) expression fold change (lot 2, Day 3, AI method): 2.2 fold
RASGRP1 (33291_at) expression fold change (lot 2, Day 3, AI method): 3.7 fold
RIG-1 (59215_at) expression fold change (lot 2, Day 3, AI method): 11.8 fold
SAMHD1 (34714_at) expression, fold change upon IL-13 stimulation (lot 2, Day 3, AI method): 3.7 fold
SCYB10 (431_at) expression fold change upon IL-13 stimulation (lot 2, Day 3, AI method): 4.9 fold
SCYB11 (35061_at) expression fold change upon IL-13 stimulation (lot 2, Day 3, AI method): 6.8 fold
SECTM1 (41045_at) expression, fold change upon IL-13 stimulation (lot 2, Day 3, AI method): 6.8 fold
SERPINB2 (37185_at) expression fold change (lot 2, Day 3, AI method): 4.1 fold
SERPINB4 (1549_s_at) expression fold change (lot 2, Day 3, AI method): 9.6 fold
SERPINB6 (34789_at) expression fold change (lot 2, Day 3, AI method): 2.1 fold
SIAT1 (41352_at) expression fold change upon IL-13 stimulation (lot 2, Day 3, AI method): 3.9 fold
SLC26A4, pendrin (36376_at) expression fold change (lot 2, Day 3, AI method): 118.3 fold
SSI-1 (41592_at) expression, fold change upon IL-13 stimulation (lot 2, Day 3, AI method): 15.5 fold
STAT1 (32860_g_at) expression fold change (lot 2, Day 3, AI method): 2.1 fold
STAT1 (33338_at) expression fold change (lot 2, Day 3, AI method): 5.8 fold
STAT1 (33339_g_at) expression fold change (lot 2, Day 3, AI method): 3.2 fold
TGFB2 (1262_s_at) expression fold change upon IL-13 stimulation (lot 2, Day 3, AI method): 4.1 fold
TGM2 (38404_at) expression fold change upon IL-13 stimulation (lot 2, Day 3, AI method): 2.1 fold
THBS1 (115_at) expression fold change upon IL-13 stimulation (lot 2, Day 3, AI method): 4.1 fold
TSPAN-3 (38612_at) expression, fold change upon IL-13 stimulation (lot 2, Day 3, AI method): 2.5 fold
UBE2L6 (40505_at) expression fold change upon IL-13 stimulation (lot 2, Day 3, AI method): 2.1 fold
UFD1L (811_at) expression, fold change upon IL-13 stimulation (lot 2, Day 3, AI method): 3.1 fold
WARS (38121_at) expression fold change upon IL-13 stimulation (lot 2, Day 3, AI method): 8.7 fold
cig5 (38549_at) expression, fold change upon IL-13 stimulation (lot 2, Day 3, AI method): 14.3 fold
diubiquitin (39959_at) expression, fold change upon IL-13 stimulation (lot 2, Day 3, AI method): 16.3 fold
AA167714 (54897_at) expression fold change (lot 2, Day 7, AI method): 4.7 fold
AA420479 (52539_at) expression fold change (lot 2, Day 7, AI method): 10.1 fold
AA541787 (52622_at) expression fold change (lot 2, Day 7, AI method): 3.9 fold
AA582926 (52307_at) expression fold change (lot 2, Day 7, AI method): 3.7 fold
AA604375 (44127_at) expression fold change (lot 2, Day 7, AI method): 3.9 fold
ACP5 (677_s_at) expression, fold change upon IL-13 stimulation (lot 2, Day 7, AI method): 2.8 fold
ADAM8 (40712_at) expression, fold change upon IL-13 stimulation (lot 2, Day 7, AI method): 4.5 fold
ADAM28 (35479_at) expression, fold change upon IL-13 stimulation (lot 2, Day 7, AI method): 3.7 fold
AI565105 (54886_at) expression fold change (lot 2, Day 7, AI method): 2.4 fold
AI659927 (54033_at) expression fold change (lot 2, Day 7, AI method): 3 fold
AI700705 (46658_at) expression fold change (lot 2, Day 7, AI method): 2.5 fold
AI821796 (57694_at) expression fold change (lot 2, Day 7, AI method): 2.5 fold
AI989346 (52327_s_at) expression fold change (lot 2, Day 7, AI method): 2.5 fold
AKAP2 (35985_at) expression, fold change upon IL-13 stimulation (lot 2, Day 7, AI method): 7.6 fold
AKAP2 (48035_at) expression fold change (lot 2, Day 7, AI method): 6.4 fold
AKAP10 (36632_at) expression, fold change upon IL-13 stimulation (lot 2, Day 7, AI method): 2.4 fold
ALOX15 (34636_at) expression, fold change upon IL-13 stimulation (lot 2, Day 7, AI method): 322.1 fold
ARHE (35803_at) expression fold change upon IL-13 stimulation (lot 2, Day 7, AI method): 2 fold
ARL7 (57151_at) expression fold change (lot 2, Day 7, AI method): 5.3 fold
AW019985 (48826_s_at) expression fold change (lot 2, Day 7, AI method): 14.7 fold
AXL (38433_at) expression, fold change upon IL-13 stimulation (lot 2, Day 7, AI method): 7.5 fold
BAL (52167_at) expression fold change (lot 2, Day 7, AI method): 1.6 fold
BIG2 (34484_at) expression, fold change upon IL-13 stimulation (lot 2, Day 7, AI method): 2.9 fold
BST2 (39061_at) expression, fold change upon IL-13 stimulation (lot 2, Day 7, AI method): 3.1 fold
C1S (40496_at) expression, fold change upon IL-13 stimulation (lot 2, Day 7, AI method): 4.1 fold
C21orf11 (58957_at) expression fold change (lot 2, Day 7, AI method): 2.4 fold
CDH6 (1620_at) expression fold change upon IL-13 stimulation (lot 2, Day 7, AI method): 12.1 fold
CDH6 (57421_at) expression fold change (lot 2, Day 7, AI method): 3.7 fold
CDH26 (46916_at) expression fold change (lot 2, Day 7, AI method): 5.4 fold
CH25H (32363_at) expression, fold change upon IL-13 stimulation (lot 2, Day 7, AI method): 12 fold
CLDN1 (46260_at) expression fold change (lot 2, Day 7, AI method): 3.6 fold
CLDN4 (35276_at) expression, fold change upon IL-13 stimulation (lot 2, Day 7, AI method): 23 fold
CLDN5 (38995_at) expression, fold change upon IL-13 stimulation (lot 2, Day 7, AI method): 8.3 fold
CTSC (133_at) expression, fold change upon IL-13 stimulation (lot 2, Day 7, AI method): 2.2 fold
CXCL16 (44095_at) expression fold change (lot 2, Day 7, AI method): 2 fold
DBCCR1 (40292_at) expression, fold change upon IL-13 stimulation (lot 2, Day 7, AI method): 19.3 fold
DD96 (31610_at) expression, fold change upon IL-13 stimulation (lot 2, Day 7, AI method): 2.5 fold
DDIT3 (39420_at) expression, fold change upon IL-13 stimulation (lot 2, Day 7, AI method): 29.5 fold
DKFZP564O0823 (41402_at) expression, fold change upon IL-13 stimulation (lot 2, Day 7, AI method): 4.6 fold
DKFZP566J091 (57197_at) expression fold change (lot 2, Day 7, AI method): 15.2 fold
DKFZp564N1116 (37784_at) expression, fold change upon IL-13 stimulation (lot 2, Day 7, AI method): 7.8 fold
